For one test, the target named is T. maritima TsaD (Thermotoga maritima, UniProt Q9WXZ2). In words: STD NMR. The class given is binding. The conditions noted are these: 20 µM protein, 1 mM amino acid, 10 mM potassium phosphate pH 6.8, 100 mM NaCl, 99% D2O, 37°C.
Another test has as its target E. coli TsaD (Escherichia coli, UniProt P05852). Put plainly: STD NMR. The class given is binding. The settings on record: 20 µM protein, 1 mM amino acid, 10 mM potassium phosphate pH 6.8, 100 mM NaCl, 99% D2O, 37°C.

Chain of T. maritima TsaD (Q9WXZ2 whole entry): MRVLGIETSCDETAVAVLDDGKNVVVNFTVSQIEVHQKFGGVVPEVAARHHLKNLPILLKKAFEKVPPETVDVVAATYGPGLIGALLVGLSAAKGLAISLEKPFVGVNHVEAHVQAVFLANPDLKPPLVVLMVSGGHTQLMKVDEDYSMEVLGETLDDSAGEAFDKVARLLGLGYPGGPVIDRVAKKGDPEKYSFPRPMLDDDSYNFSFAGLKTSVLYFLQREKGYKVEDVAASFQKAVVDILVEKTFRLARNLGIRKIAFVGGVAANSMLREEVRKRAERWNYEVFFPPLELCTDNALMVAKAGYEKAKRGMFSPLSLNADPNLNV
Chain of E. coli TsaD (P05852 whole entry): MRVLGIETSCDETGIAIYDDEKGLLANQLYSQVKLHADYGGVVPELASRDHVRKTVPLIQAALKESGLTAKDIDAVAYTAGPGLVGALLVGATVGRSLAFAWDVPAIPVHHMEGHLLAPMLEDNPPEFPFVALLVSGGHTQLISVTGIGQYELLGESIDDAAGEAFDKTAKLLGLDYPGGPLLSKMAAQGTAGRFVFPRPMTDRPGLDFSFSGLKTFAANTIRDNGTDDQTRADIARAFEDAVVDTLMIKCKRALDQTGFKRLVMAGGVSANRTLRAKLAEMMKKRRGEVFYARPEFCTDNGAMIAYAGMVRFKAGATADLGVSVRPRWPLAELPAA

Turning to `CCC(O)C(N)C(=O)O` (racemic) [hnV, D,L-3-hydroxynorvaline], the “STD NMR” value at T. maritima TsaD (racemate tested) was “interaction with hydroxynorvaline, distinct signals due to interactions with the Hα and Hβ protons”.

Consider `C[C@@H](O)[C@H](N)C(=O)O` [Thr, L-threonine], for which the “STD NMR” value on T. maritima TsaD is given as “clear STD NMR signal for its interaction with the Hβ proton of threonine”; on E. coli TsaD it was “E. coli TsaD shows a similar pattern of interaction with threonine”.
